In patent US20250084074A1, “SUBSTITUTED HETEROCYCLES AS HSET INHIBITORS” (MERCK PATENT GMBH, priority 2022, published 2025):
pIC50: −log10 of the molar value. Where a name gives a salt, the structure may show the parent alone.

Target: HSET full length protein (Homo sapiens (Human), UniProt Q9BW19)
Assay: HSET ADP-Glo Assay S - 3 μM ATP
Type: biochemical
Details: 5 nM HSET, 70 μg/mL microtubule, 80 min at rt, read-out: COMBINED HSET ADP GLO IC50
Procedure, shortened: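 ADP-Glo luminescence read-out: ATPase reaction at 3 μM ATP, 80 min at room temperature, after a 10 min compound preincubation. Enzyme was full-length human HSET at 5 nM, stimulated by 70 μg/mL paclitaxel-stabilised bovine microtubules in HEPES pH 6.8 buffer with MgCl2, EGTA, Triton X-100 and DTT.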

Sequence of HSET full length protein (Q9BW19 whole entry): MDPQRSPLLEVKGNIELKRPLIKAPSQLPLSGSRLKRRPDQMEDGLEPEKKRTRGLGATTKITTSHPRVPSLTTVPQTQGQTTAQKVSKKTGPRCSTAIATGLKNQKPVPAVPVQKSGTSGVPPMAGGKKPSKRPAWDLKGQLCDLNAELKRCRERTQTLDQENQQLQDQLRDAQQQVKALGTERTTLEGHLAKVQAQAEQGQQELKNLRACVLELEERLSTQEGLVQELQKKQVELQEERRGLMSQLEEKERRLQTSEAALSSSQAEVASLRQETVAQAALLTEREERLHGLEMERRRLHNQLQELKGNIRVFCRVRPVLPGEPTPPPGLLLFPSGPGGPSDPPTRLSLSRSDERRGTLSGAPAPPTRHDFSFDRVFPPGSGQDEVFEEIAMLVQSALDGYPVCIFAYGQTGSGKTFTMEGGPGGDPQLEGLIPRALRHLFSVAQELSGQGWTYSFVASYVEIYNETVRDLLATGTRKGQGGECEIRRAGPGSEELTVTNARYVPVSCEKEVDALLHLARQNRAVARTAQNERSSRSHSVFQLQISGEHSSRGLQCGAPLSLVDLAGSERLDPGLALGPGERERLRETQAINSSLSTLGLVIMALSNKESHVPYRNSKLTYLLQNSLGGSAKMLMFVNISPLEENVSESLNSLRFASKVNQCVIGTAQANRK

SMILES | pIC50
Cc1nc(NC(=O)[C@H]2C[C@@H](Nc3nccc4ccc(C(F)(F)F)cc34)C2)sc1C(=O)OC(C)(C)C [Example 109, tert-Butyl 4-methyl-2-((1s,3s)-3-((7-(trifluoromethyl)isoquinolin-1-yl)amino)cyclobutane-1-carboxamido)thiazole-5-carboxylate] | 5.75
Cc1nc(-c2ccc3ccnc(N[C@H]4C[C@@H](C(=O)N(C)c5nc(C)c(C(=O)OC(C)(C)C)s5)C4)c3c2)no1 [Example 111, tert-Butyl 4-methyl-2-[methyl-[3-[[7-(5-methyl-1,2,4-oxadiazol-3-yl)-1-isoquinolyl]amino]cyclobutanecarbonyl]amino]thiazole-5-carboxylate] | 7.17
Cc1nc(-c2ccc3ccnc(N[C@H]4C[C@@H](C(=O)Nc5nc(Cl)c(C(=O)OC(C)(C)C)s5)C4)c3c2)no1 [Example 112, tert-Butyl 4-chloro-2-[[3-[[7-(5-methyl-1,2,4-oxadiazol-3-yl)-1-isoquinolyl]amino]cyclobutanecarbonyl]amino]thiazole-5-carboxylate] | 7.27
Cc1nc(-c2ccc3ccnc(N[C@H]4C[C@@H](C(=O)Nc5nc(Cl)c(C(=O)NC(C)(C)C)s5)C4)c3c2)no1 [Example 113, N-tert-butyl-4-chloro-2-[[3-[[7-(5-methyl-1,2,4-oxadiazol-3-yl)-1-isoquinolyl]amino]cyclobutanecarbonyl]amino]thiazole-5-carboxamide] | 5.86
Cc1ccc2ccnc(N[C@H]3C[C@@H](C(=O)Nc4nc(C)c(C(C)(C)C)s4)C3)c2c1 [Example 117, N-(5-tert-butyl-4-methyl-thiazol-2-yl)-3-[(7-methyl-1-isoquinolyl)amino]cyclobutanecarboxamide] | 5.02
Cc1noc(-c2sc(NC(=O)CCNC(=O)c3cccc(-c4noc(C)n4)c3)nc2C)n1 [Example 118, 3-(5-methyl-1,2,4-oxadiazol-3-yl)-N-(3-((4-methyl-5-(3-methyl-1,2,4-oxadiazol-5-yl)thiazol-2-yl)amino)-3-oxopropyl)benzamide] | 5.08
Cc1nc(-c2cccc(C(=O)NCCC(=O)Nc3nc(C)c(C(=O)OC4CCCC4)s3)c2)no1 [Example 122, Cyclopentyl-4-methyl-2-(3-(3-(5-methyl-1,2,4-oxadiazol-3-yl)benzamido)propanamido)thiazole-5-carboxylate] | 7.57
Cc1nc(-c2cccc(C(=O)NCCC(=O)Nc3nc(C)c(C(=O)OC4CCCCC4)s3)c2)no1 [Example 124, Cyclohexyl-4-methyl-2-(3-(3-(5-methyl-1,2,4-oxadiazol-3-yl)benzamido)propanamido)thiazole-5-carboxylate] | 7.85
Cc1nc(-c2cccc(C(=O)NCCC(=O)Nc3nc(C)c(C(=O)OCCCCN)s3)c2)no1 [Example 125, 4-aminobutyl 4-methyl-2-(3-(3-(5-methyl-1,2,4-oxadiazol-3-yl)benzamido)propanamido)thiazole-5-carboxylate hydrochloride] | 5.25
COc1ccc(CCCOC(=O)c2sc(NC(=O)CCNC(=O)c3cccc(-c4noc(C)n4)c3)nc2C)cc1 [Example 126, 3-(4-methoxyphenyl)propyl 4-methyl-2-(3-(3-(5-methyl-1,2,4-oxadiazol-3-yl)benzamido)propanamido)thiazole-5-carboxylate] | 7.41
COCCOCCCCOC(=O)c1sc(NC(=O)CCNC(=O)c2cccc(-c3noc(C)n3)c2)nc1C [Example 127, 4-(2-methoxyethoxy)butyl 4-methyl-2-(3-(3-(5-methyl-1,2,4-oxadiazol-3-yl)benzamido)propanamido)thiazole-5-carboxylate] | 7.26
CC(=O)NCCCCOC(=O)c1sc(NC(=O)CCNC(=O)c2cccc(-c3noc(C)n3)c2)nc1C [Example 130, 4-Acetamidobutyl 4-methyl-2-(3-(3-(5-methyl-1,2,4-oxadiazol-3-yl)benzamido)propanamido)thiazole-5-carboxylate] | 4.81
Cc1nc(-c2cccc(C(=O)NCCC(=O)Nc3nc(C)c(C(=O)OC(C)(C)C)s3)c2)no1 [Example 132, Tert-butyl-4-methyl-2-(3-(3-(5-methyl-1,2,4-oxadiazol-3-yl)benzamido)propanamido)thiazole-5-carboxylate] | 8.00
CCOC(=O)c1sc(NC(=O)CCNC(=O)c2cccc(-c3noc(C)n3)c2)cc1C [Example 133, Ethyl-3-methyl-5-[3-[[3-(5-methyl-1,2,4-oxadiazol-3-yl)benzoyl]amino]propanoylamino]thiophene-2-carboxylate] | 7.03
CCCN(C(=O)CCNC(=O)c1cccc(-c2noc(C)n2)c1)c1nc(C)c(C(=O)OCC)s1 [Example 134, Ethyl-4-methyl-2-(3-(3-(5-methyl-1,2,4-oxadiazol-3-yl)benzamido)-N-propylpropanamido)thiazole-5-carboxylate] | 5.88
Cc1nc(-c2cc(C(=O)NCCC(=O)Nc3nc(C)c(C(=O)OCCCCCCO)s3)cc(C(F)(F)F)c2)no1 [Example 136, 6-Hydroxyhexyl 4-methyl-2-(3-(3-(5-methyl-1,2,4-oxadiazol-3-yl)-5-(trifluoromethyl)benzamido)propanamido)thiazole-5-carboxylate] | 6.13
CCOC(=O)c1sc(C(=O)NCCNC(=O)c2cccc(-c3noc(CC)n3)c2)nc1C [Example 140, Ethyl-2-((2-(3-(5-ethyl-1,2,4-oxadiazol-3-yl)benzamido)ethyl)carbamoyl)-4-methylthiazole-5-carboxylate] | 5.30
CCOC(=O)c1sc(C(=O)NCCNC(=O)c2cccc(-c3noc(C)n3)c2)nc1C [Example 141, Ethyl-4-methyl-2-((2-(3-(5-methyl-1,2,4-oxadiazol-3-yl)benzamido)ethyl)carbamoyl)thiazole-5-carboxylate] | 6.39
CCOC(=O)c1sc(NC(=O)C[C@@H](C)NC(=O)c2cccc(-c3noc(C)n3)c2)nc1C [Example 142, Ethyl-(R)-4-methyl-2-(3-(3-(5-methyl-1,2,4-oxadiazol-3-yl)benzamido)butanamido)thiazole-5-carboxylate] | 6.54
CCOC(=O)c1sc(NC(=O)C[C@H](C)NC(=O)c2cccc(-c3noc(C)n3)c2)nc1C [Example 143, Ethyl-(S)-4-methyl-2-(3-(3-(5-methyl-1,2,4-oxadiazol-3-yl)benzamido)butanamido)thiazole-5-carboxylate] | 7.21

Second part, the molecule after the results:

pIC50 | SMILES
8.10 | Cc1nc(-c2ccc3ccnc(N[C@H]4C[C@@H](C(=O)Nc5nc(C)c(C(=O)OC(C)(C)C)s5)C4)c3c2)no1 [Example 110, tert-Butyl 4-methyl-2-[[3-[[7-(5-methyl-1,2,4-oxadiazol-3-yl)-1-isoquinolyl]amino]cyclobutanecarbonyl]amino]thiazole-5-carboxylate]
6.84 | CCOC(=O)c1sc(NC(=O)[C@H]2C[C@@H](Nc3nccc4ccc(-c5noc(C)n5)cc34)C2)nc1C(F)F [Example 116, Ethyl-4-(difluoromethyl)-2-[[3-[[7-(5-methyl-1,2,4-oxadiazol-3-yl)-1-isoquinolyl]amino]cyclobutanecarbonyl]amino]thiazole-5-carboxylate]
6.80 | CCCOC(=O)c1cc(NC(=O)CCNC(=O)c2cccc(-c3noc(C)n3)c2)nn1C [Example 120, Propyl-1-methyl-3-(3-(3-(5-methyl-1,2,4-oxadiazol-3-yl)benzamido)propanamido)-1 H-pyrazole-5-carboxylate]
7.44 | CCCOC(=O)c1sc(N(C)C(=O)CCNC(=O)c2cccc(-c3noc(C)n3)c2)nc1C [Example 121, Propyl-4-methyl-2-(N-methyl-3-(3-(5-methyl-1,2,4-oxadiazol-3-yl)benzamido)propanamido)thiazole-5-carboxylate]
8.05 | CCCCCCOC(=O)c1sc(NC(=O)CCNC(=O)c2cccc(-c3noc(C)n3)c2)nc1C [Example 123, Hexyl-4-methyl-2-(3-(3-(5-methyl-1,2,4-oxadiazol-3-yl)benzamido)propanamido)thiazole-5-carboxylate]
4.85 | COC(=O)c1cc(NC(=O)CCNC(=O)c2cccc(-c3noc(C)n3)c2)nn1C [Example 128, Methyl-2-methyl-5-[3-[[3-(5-methyl-1,2,4-oxadiazol-3-yl)benzoyl]amino]propanoylamino]pyrazole-3-carboxylate]
5.95 | CCCC(C)c1sc(NC(=O)CCNC(=O)c2cccc(-c3noc(C)n3)c2)nc1C (stereo not shown) [Example 129, 3-(5-methyl-1,2,4-oxadiazol-3-yl)-N-(3-((4-methyl-5-(pentan-2-yl)thiazol-2-yl)amino)-3-oxopropyl)benzamide]
7.80 | CCCOC(=O)c1cc(NC(=O)CCNc2nccc3ccc(-c4noc(C)n4)cc23)nn1C [Example 131, Propyl-1-methyl-3-(3-((7-(5-methyl-1,2,4-oxadiazol-3-yl)isoquinolin-1-yl)amino)propanamido)-1 H-pyrazole-5-carboxylate formate]
6.37 | CCOC(=O)c1cc(NC(=O)CCNc2nccc3ccc(-c4noc(C)n4)cc23)n[nH]1 [Example 135, Ethyl-3-(3-((7-(5-methyl-1,2,4-oxadiazol-3-yl)isoquinolin-1-yl)amino)propanamido)-1 H-pyrazole-5-carboxylate]
6.11 | CCCCc1sc(C(=O)NCCNc2nccc3ccc(-c4noc(C)n4)cc23)nc1C [Example 137, 5-Butyl-4-methyl-N-(2-((7-(5-methyl-1,2,4-oxadiazol-3-yl)isoquinolin-1-yl)amino)ethyl)thiazole-2-carboxamide formate]
7.96 | Cc1nc(-c2ccc3ccnc(NCCC(=O)Nc4cc(C(=O)OC5CCCC5)n(C)n4)c3c2)no1 [Example 138, Cyclopentyl-1-methyl-3-(3-((7-(5-methyl-1,2,4-oxadiazol-3-yl)isoquinolin-1-yl)amino)propanamido)-1 H-pyrazole-5-carboxylate]
